Values quoted from earlier work as cited in article PMC13041344 (Antimicrobial Agents and Chemotherapy, 2026).

Conditions: humans; 2 g q8h as a 3-h infusion

C[C@@H](O)[C@H]1C(=O)N2C(C(=O)O)=C(S[C@@H]3CN[C@H](C(=O)N(C)C)C3)[C@H](C)[C@H]12 [MEM, meropenem]
Cmax: 46000 ng/mL
